{"source": "patent US5221664A", "about": "“Composition and treatment with biologically active peptides and toxic cations” (Magainin Pharmaaceuticals Inc., priority 1991, dated 1993)", "key": {"[1]": {"system": "P. aeruginosa strain 107 which was gentamicin resistant", "test": "Minimum Inhibitory Concentration (MIC) in TSB, test wells", "assay_type": "cell-based", "conditions": "for MIC: agent alone, gentamicin resistant P. aeruginosa strain 107; for MIC of the peptide: P. aeruginosa strain 107", "protocol": "Approximately 1-5×10^5 CFUs of P. aeruginosa strain 107 which was gentamicin resistant, dispersed in 100 μl of TSB were added to each test well. […] The following combinations of Magainin II, with or without silver nitrate, were tested for Minimum Inhibitory Concentration (MIC) of Magainin II: […]"}, "[2]": {"system": "P. aeruginosa strain 27853", "protocol": "Approximately 1-5×10^5 colony forming units (CFUs) of P. aeruginosa strain 27853, dispersed in 100 μl of Trypticase soy broth (TSB), were added to each test well. […] B13-33 peptide is of the following structure:\nThe following peptide combinations were tested for Minimal Inhibitory Concentration (MIC) of the B13-33 peptide:\nThe following combinations were tested for the MIC of silver nitrate:\nApproximately 1-5×10^5 CFUs of P. aeruginosa strain 27853 dispersed in 100 μl of TSB were added to each test well. […]"}, "[3]": {"system": "clinical isolate of a methicillin resistant S. aureus (MSRA)", "assay_type": "cell-based", "conditions": "agent alone", "protocol": "Approximately 1-5×10^5 CFUs of a clinical isolate of a methicillin resistant S. aureus (MSRA), dispersed in 100 μl of TSB were added to each test well. […] The MIC of each peptide alone, and of silver nitrate alone was determined. The MIC of each peptide when 5 μg/ml and/or 10 μg/ml of silver nitrate was added was determined as well."}, "[4]": {"conditions": "agent alone, P. aeruginosa strain 27853"}, "[5]": {"conditions": "plus 3 μg/ml silver nitrate, P. aeruginosa strain 27853"}}, "note": "“And” between values parts separate entries of the source, which are not always exact repeats. Equal entries are not always repeated. Where two headings read alike, the source gives them in different places. Ends that are not written are not given here.", "data": [{"compound": "O=[N+]([O-])[O-].[Ag+]", "note": "[Silver nitrate, silver nitrate, reference compound]", "values": [{"measurement": "MIC", "setting": "[1]", "value": 8, "unit": "µg/mL"}, {"measurement": "MIC", "setting": "[2]; [4]", "value": "4 to 8 µg/mL and 8 µg/mL"}, {"measurement": "MIC", "setting": "[2]; agent alone, P. aeruginosa strain 27853, listed as silver nitrate", "value": "2 to 8", "unit": "µg/mL"}, {"measurement": "MIC of silver nitrate", "setting": "[2]; plus 1.6 μg/ml B13-33 peptide, P. aeruginosa strain 27853", "value": "2 to 8", "unit": "µg/mL"}, {"measurement": "MIC of silver nitrate", "setting": "[2]; plus 5 μg/ml B13-33 peptide, P. aeruginosa strain 27853", "value": "< 0.25", "unit": "µg/mL"}, {"measurement": "MIC of silver nitrate", "setting": "[2]; plus 5 μg/ml B13-33 peptide, P. aeruginosa strain 27853, listed as silver nitrate", "value": "less than 0.25 μg/ml"}, {"measurement": "MIC", "setting": "[3]", "value": 16, "unit": "µg/mL"}]}, {"compound": "GIGKFLHSAKKFGKAFVGEIMNS-NH2 [Magainin II]", "values": [{"measurement": "MIC", "setting": "[1]", "value": 256, "unit": "µg/mL"}, {"measurement": "MIC of the peptide", "setting": "[1]; plus 1 μg/ml silver nitrate", "value": 32, "unit": "µg/mL"}, {"measurement": "MIC of the peptide", "setting": "[1]; plus 2 μg/ml silver nitrate", "value": 16, "unit": "µg/mL"}, {"measurement": "MIC of the peptide", "setting": "[1]; plus 3 μg/ml silver nitrate", "value": 16, "unit": "µg/mL"}, {"measurement": "MIC of the peptide", "setting": "[1]; plus 4 μg/ml silver nitrate", "value": 4, "unit": "µg/mL"}, {"measurement": "MIC of the peptide", "setting": "[1]; plus 5 μg/ml silver nitrate", "value": "< 0.03", "unit": "µg/mL"}, {"measurement": "MIC of the peptide", "setting": "[2]; plus 1 μg/ml silver nitrate, P. aeruginosa strain 27853", "value": 32, "unit": "µg/mL"}, {"measurement": "MIC of the peptide", "setting": "[2]; plus 2 μg/ml silver nitrate, P. aeruginosa strain 27853", "value": 16, "unit": "µg/mL"}, {"measurement": "MIC of the peptide", "setting": "[2]; [5]", "value": 8, "unit": "µg/mL"}, {"measurement": "MIC of the peptide", "setting": "[2]; plus 4 μg/ml silver nitrate, P. aeruginosa strain 27853", "value": "< 0.03", "unit": "µg/mL"}]}, {"compound": "GIGKFLKKAKKFGKAFVKIMKK [B13-33 peptide]", "values": [{"measurement": "MIC", "setting": "[2]; strain 27853", "value": "4 to 16", "unit": "µg/mL"}]}, {"compound": "KWKLFKKIEKVGQRVRDAVISAGPAVATVAQATALAK [Cecropin A-D]", "values": [{"measurement": "MIC", "setting": "[2]; [4]", "value": 16, "unit": "µg/mL"}, {"measurement": "MIC of the peptide", "setting": "[2]; [5]", "value": "< 0.25", "unit": "µg/mL"}]}]}
